From patent publication US12617777B2, “GPR84 antagonists and uses thereof” (Liminal BioSciences Limited, priority 2021, dated 2026)

Biological target: T1, human GPR84 receptor (Homo sapiens, UniProt Q9NQS5)
T1 construct: host or cells: HEK293, transient transfection
Assay: Gαi biosensor BRET assay in HEK293 cells (antagonism of ZQ-16)
Format: cell-based
Settings: for inhibition at 2 µM: HEK293, single concentration 2 μM (designated A); for inhibition at 10 µM: HEK293, single concentration 10 μM (designated F); for IC50: HEK293 cells, antagonism of 200 nmol/L ZQ-16
Outline: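 Antagonist mode: test compound 5 min at 37° C, followed by ZQ-16 agonist (200 nmol/L, 5 min, room temperature), in HEK293 cells transfected with GPR84 plus Rluc8-tagged Gαi2, GFP10-Gγ2 and Gβ1. Readout as GFP10/Rluc8 emission ratio after 5 μmol/L coelenterazine 400A, net of Rluc8-only and vehicle signal.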

T1 sequence (Q9NQS5 whole entry): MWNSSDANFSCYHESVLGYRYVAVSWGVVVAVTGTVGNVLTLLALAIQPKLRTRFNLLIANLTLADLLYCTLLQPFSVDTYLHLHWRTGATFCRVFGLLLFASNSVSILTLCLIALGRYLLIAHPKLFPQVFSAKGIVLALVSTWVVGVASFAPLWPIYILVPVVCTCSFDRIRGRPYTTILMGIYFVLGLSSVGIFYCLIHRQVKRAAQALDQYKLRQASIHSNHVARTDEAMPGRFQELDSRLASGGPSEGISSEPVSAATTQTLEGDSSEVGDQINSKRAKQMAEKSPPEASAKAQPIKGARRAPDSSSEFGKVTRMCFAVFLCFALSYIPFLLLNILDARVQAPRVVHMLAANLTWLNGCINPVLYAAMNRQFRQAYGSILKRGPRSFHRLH

Row | inhibition at 2 µM [%] | inhibition at 10 µM [%] | IC50 [nM] | Structure (SMILES)
1 | 25 to 50 |  |  | CCc1ccc(C#CC2CC2)cc1Cc1cn(CC2CCCCO2)nn1 (stereo not drawn) [Compound I-475]
2 | ≤ 25 |  |  | CCc1c(C#CC2CC2)cccc1Cc1cn(CC2CCCCO2)nn1 (stereo not drawn) [Compound I-476]
3 |  | 50 to 75 |  | Cc1cc(N2CC(C(C)(C)O)C2)ccc1-c1cn(CC2CCCCO2)nn1 (stereo not drawn) [Compound I-477]
4 |  | ≤ 25 |  | Cc1ccc(C#CC2CC2)nc1-c1cn(CC2CCCCO2)nn1 (stereo not drawn) [Compound I-479]
5 | ≤ 25 |  |  | Cc1ccc(C#CC2CC2)nc1-c1cn(Cc2ccccn2)nn1 [Compound I-480]
6 | ≤ 25 |  |  | Cc1ccc(C#CC2CC2)nc1-c1cn(Cc2ncccn2)nn1 [Compound I-481]
7 |  | ≤ 25 |  | Cc1cc(C2CCN(Cc3ccccn3)CC2)cnc1-c1cn(CC2CCCCO2)nn1 (stereo not drawn) [Compound I-482]
8 |  | ≤ 25 |  | Cc1cc(NC(=O)c2ccccc2)ccc1-c1cn(CC2CCCCO2)nn1 (stereo not drawn) [Compound I-483]
9 |  | ≤ 25 |  | COC(=O)N1CCC(c2ccc(-c3cn(CC4CCCCO4)nn3)c(C)c2)CC1 (stereo not drawn) [Compound I-484]
10 |  | ≤ 25 |  | Cc1cc(C2CCOCC2)ccc1-c1cn(CC2CCCCO2)nn1 (stereo not drawn) [Compound I-485]
11 |  | ≤ 25 |  | Cc1cc(N2CC(NS(C)(=O)=O)C2)ccc1-c1cn(CC2CCCCO2)nn1 (stereo not drawn) [Compound I-486]
12 |  | ≤ 25 |  | Cc1cc(N2CC(N(C)S(C)(=O)=O)C2)ccc1-c1cn(CC2CCCCO2)nn1 (stereo not drawn) [Compound I-487]
13 |  | 50 to 75 | ≤ 300 | Cc1ccccc1-c1cn(CC#Cc2ccc(-c3cn(CC4CCCCO4)nn3)c(C)c2)nn1 (stereo not drawn) [Compound I-488]
14 | ≤ 25 |  |  | Cc1cc(C#CC2CC2)ccc1-c1cn(CC2CC(F)(F)CO2)nn1 (stereo not drawn) [Compound I-489]
15 |  | > 75 | 300 to 1000 | COC(c1cccc(C#CC2CC2)c1)c1cn(CC2CCCCO2)nn1 (stereo not drawn) [Compound I-490]
16 |  | ≤ 25 |  | COC(c1cccc(C#CCO)c1)c1cn(CC2CCCCO2)nn1 (stereo not drawn) [Compound I-491]
17 |  | > 75 | ≤ 300 | Cc1cccc(-c2cn(CC#Cc3ccc(-c4cn(CC5CCCCO5)nn4)c(C)c3)nn2)c1 (stereo not drawn) [Compound I-492]
18 |  | ≤ 25 |  | Cc1cc(C#CC2CC2)ccc1-c1cn(CC2CN(C)C(=O)O2)nn1 (stereo not drawn) [Compound I-493]
19 |  | > 75 |  | Cc1ccc(C#CC2CC2)cc1-n1nc(CC2CC(F)(F)CCO2)oc1=O (stereo not drawn) [Compound I-494, 3-(5-(cyclopropylethynyl)-2-methylphenyl)-5-((4,4-difluorotetrahydro-2H-pyran-2-yl)methyl)-1,3,4-oxadiazol-2(3H)-one]
20 |  | 25 to 50 |  | Cc1cc(N2CC(C)(C#N)C2)ccc1-c1cn(CC2CCCCO2)nn1 (stereo not drawn) [Compound I-495]
21 |  | 25 to 50 |  | CC(O)(c1cccc(C#CC2CC2)c1)c1cn(CC2CCCCO2)nn1 (stereo not drawn) [Compound I-496]
22 |  | 25 to 50 |  | Cc1cc(C#CC2CC2)ccc1-c1cn(CC2CC(F)(F)CCO2)nn1 (stereo not drawn) [Compound I-497]
23 | 50 to 75 |  | 300 to 1000 | CC(C)Oc1cc(C#CCN2CC(C)(C)C2)cnc1-c1cn(C[C@H]2CCCCO2)nn1 [Compound I-498]
24 |  | > 75 | 1000 to 3000 | CCc1cc(N2CC(C)(CO)C2)cnc1-c1cn(CC2CC(C)(C)CO2)nn1 (stereo not drawn) [Compound I-500]
25 |  | > 75 | 1000 to 3000 | CC(C)Oc1cc(N2CC(C)(CO)C2)cnc1-c1cn(CC2CC(C)(C)CO2)nn1 (stereo not drawn) [Compound I-501]

Row | inhibition at 2 µM [%] | inhibition at 10 µM [%] | IC50 [nM] | Structure (SMILES)
26 |  | > 75 | 1000 to 3000 | CC(C)Oc1cc(C#CC2CC2)cnc1-c1cn(Cc2ncccn2)nn1 [Compound I-502]
27 |  | > 75 |  | Cc1cc(N2CCC(Cc3ccccn3)CC2)cnc1-c1cn(CC2CCCCO2)nn1 (stereo not drawn) [Compound I-503]
28 |  | ≤ 25 |  | Cc1cc(C2CCN(Cc3ccccn3)CC2)cnc1Cc1cn(CC2CCCCO2)nn1 (stereo not drawn) [Compound I-504]
29 | ≤ 25 |  |  | Cc1c(-c2cn(CC3CCCCO3)nn2)ccc(C#CC2CC2)c1F (stereo not drawn) [Compound I-505]
30 |  | 50 to 75 |  | CNC1(C)CN(c2ccc(-c3cn(CC4CCCCO4)nn3)c(C)c2)C1 (stereo not drawn) [Compound I-506]
31 |  | 25 to 50 |  | COC1CN(c2ccc(-c3cn(CC4CCCCO4)nn3)c(C)c2)C1 (stereo not drawn) [Compound I-507]
32 |  | 50 to 75 |  | Cc1cc(N2CC(C(C)O)C2)ccc1-c1cn(CC2CCCCO2)nn1 (stereo not drawn) [Compound I-508]
33 | ≤ 25 |  |  | Cc1cc(C#CC2CC2)ccc1-c1cn(CC23CCC(CC2)CO3)nn1 [Compound I-509]
34 | 25 to 50 |  | > 2000 | CO[C@@H](c1cn(C[C@@H]2CCCCO2)nn1)c1cc(C#CC2CC2)ccc1C [Compound I-513]
35 | ≤ 25 |  |  | Cc1cc(OC2CN(Cc3ccccn3)C2)ccc1-c1cn(CC2CCCCO2)nn1 (stereo not drawn) [Compound I-514]
36 |  | ≤ 25 |  | Cc1cc(C#CC2CC2)ccc1-c1cn(CC2COCCN2)nn1 (stereo not drawn) [Compound I-515]
37 |  | ≤ 25 |  | Cc1cc(C#CC2CC2)ccc1-c1cn(CC2CCCC(=O)N2)nn1 (stereo not drawn) [Compound I-516]
38 |  | ≤ 25 |  | Cc1cc(C#CC2CC2)ccc1-c1cn(Cc2nccn2C)nn1 [Compound I-517]
39 |  | > 75 | 1000 to 3000 | CN(C)c1cc(C#CC2CC2)cnc1-c1cn(CC2CCCCO2)nn1 (stereo not drawn) [Compound I-518]
40 |  | 25 to 50 |  | Cc1cc(N2CC(C)(F)C2)ccc1-c1cn(CC2CCCCO2)nn1 (stereo not drawn) [Compound I-519]
41 |  | 50 to 75 |  | Cc1cc(N2CC(C(F)F)C2)ccc1-c1cn(CC2CCCCO2)nn1 (stereo not drawn) [Compound I-520]
42 |  | ≤ 25 |  | Cc1cc(N2CCC3(CC2)CN(Cc2ccccn2)C3)ccc1-c1cn(CC2CCCCO2)nn1 (stereo not drawn) [Compound I-521]
43 |  | 50 to 75 |  | Cc1cc(C#CC2CC2)ccc1-c1cn(CC2OCCCC2(C)C)nn1 (stereo not drawn) [Compound I-522, 4-(4-(cyclopropylethynyl)-2-methylphenyl)-1-((3,3-dimethyltetrahydro-2H-pyran-2-yl)methyl)-1H-1,2,3-triazole]
44 | ≤ 25 |  |  | Cc1cc(C#CC2CC2)ccc1-c1cn(CC23CC4CC(CC(C4)O2)C3)nn1 [Compound I-523]
45 |  | ≤ 25 |  | Cc1cc(N2CC(C)(O)C2)ccc1-c1cn(CC2CCCCO2)nn1 (stereo not drawn) [Compound I-524]
46 |  | ≤ 25 |  | Cc1cc(C#CC2CC2)ccc1-c1cn(CC23CC(CO2)C3)nn1 [Compound I-525]
47 |  | 50 to 75 | ≤ 300 | CC(C)Oc1cc(C#CCNc2ccccc2)cnc1-c1cn(CC2CC(C)(C)CO2)nn1 (stereo not drawn) [Compound I-526]
48 |  | ≤ 25 |  | Cc1cc(C#CC2CC2)ccc1-c1cn(CC2COCCN2C)nn1 (stereo not drawn) [Compound I-527]
49 |  | ≤ 25 |  | Cc1cc(C#CC2CC2)ccc1-c1cn(Cc2cncn2C)nn1 [Compound I-528]
50 |  | ≤ 25 |  | Cc1cc(N2CC(F)C2)ccc1-c1cn(CC2CCCCO2)nn1 (stereo not drawn) [Compound I-529]

Row | inhibition at 2 µM [%] | inhibition at 10 µM [%] | IC50 [nM] | Structure (SMILES)
51 |  | 25 to 50 |  | Cc1cc(N2CCN(Cc3ccccn3)CC2)ccc1-c1cn(CC2OCCCO2)nn1 [Compound I-532]
52 |  | ≤ 25 |  | Cc1cc(N2CCN(c3ccccn3)CC2)ccc1-c1cn(CC2CCCCO2)nn1 (stereo not drawn) [Compound I-533]
53 |  | ≤ 25 |  | Cc1cc(N2CCN(C(=O)c3ccccn3)CC2)ccc1-c1cn(CC2CCCCO2)nn1 (stereo not drawn) [Compound I-534]
54 |  | ≤ 25 |  | CC(c1cccc(N2CC(C)(C)C2)c1)c1cn(CC2CCCCO2)nn1 (stereo not drawn) [Compound I-536]
55 |  | > 75 | 300 to 1000 | Cc1cc(N2CC(C)(Nc3ccccc3)C2)ccc1-c1cn(CC2CCCCO2)nn1 (stereo not drawn) [Compound I-537, 3-methyl-1-(3-methyl-4-(1-((tetrahydro-2H-pyran-2-yl)methyl)-1H-1,2,3-triazol-4-yl)phenyl)-N-phenylazetidin-3-amine]
56 |  | > 75 | 300 to 1000 | Cc1cc(C#CCNC(=O)OC(C)(C)C)cnc1-c1cn(CC2CCCCO2)nn1 (stereo not drawn) [Compound I-538]
57 |  | ≤ 25 |  | Cc1cc(C#CC2CC2)ccc1-c1cn(CC2CCC(=O)O2)nn1 (stereo not drawn) [Compound I-539]
58 |  | > 75 |  | Cc1cc(C#CC2CCC2)ccc1-c1cn(CC2CCCCO2)nn1 (stereo not drawn) [Compound I-540]
59 |  | 25 to 50 |  | Cc1cc(N2CC(Nc3cnn(C)c3)C2)ccc1-c1cn(CC2CCCCO2)nn1 (stereo not drawn) [Compound I-541]
60 | ≤ 25 |  |  | Cc1cc(C#CC2CC2)ccc1-c1cn(CC2CCC(=O)N2)nn1 (stereo not drawn) [Compound I-542]
61 | ≤ 25 |  |  | Cc1cc(C#CC2CC2)ccc1-c1cn(Cc2ccn(C)n2)nn1 [Compound I-543]
62 |  | 25 to 50 |  | Cc1cc(N2CC(CF)C2)ccc1-c1cn(CC2CCCCO2)nn1 (stereo not drawn) [Compound I-544]
63 |  | ≤ 25 |  | Cc1cc(N2CCN(c3cccnc3)CC2)ccc1-c1cn(CC2CCCCO2)nn1 (stereo not drawn) [Compound I-545]
64 |  | 50 to 75 |  | Cc1cc(C2CCCN(Cc3ccccn3)C2)ccc1-c1cn(CC2CCCCO2)nn1 (stereo not drawn) [Compound I-546]
65 |  | 25 to 50 |  | Cc1cc(N2CCN(Cc3ncccn3)CC2)ccc1-c1cn(CC2CCCCO2)nn1 (stereo not drawn) [Compound I-547]
66 |  | 50 to 75 | > 3000 | Cc1cc(N2CCN(Cc3cccnn3)CC2)ccc1-c1cn(CC2CCCCO2)nn1 (stereo not drawn) [Compound I-548]
67 |  | 50 to 75 | 1000 to 3000 | Cc1cc(N2CCN(Cc3ccncc3)CC2)ccc1-c1cn(CC2CCCCO2)nn1 (stereo not drawn) [Compound I-549]
68 |  | 50 to 75 |  | Cc1cc(N2CC3CCC2CN3Cc2ccccn2)ccc1-c1cn(CC2CCCCO2)nn1 (stereo not drawn) [Compound I-550]
69 |  | 25 to 50 |  | Cc1ccc(C#CC2CC2)cc1Cc1cn(CC2CCc3ccccc3O2)nn1 (stereo not drawn) [Compound I-551]
70 | 25 to 50 |  |  | Cc1ccc(C#CC2CC2)cc1Cc1cn(CC2COc3ncccc3O2)nn1 (stereo not drawn) [Compound I-552]
71 | > 75 |  |  | Cc1cc(C#CC2CC2)ccc1-c1cn(CC2(C)CCCCO2)nn1 (stereo not drawn) [Compound I-554]
72 |  | ≤ 25 |  | Cc1cc(N2CCC(C)(C)C2)cnc1-c1cn(CC2CCCCO2)nn1 (stereo not drawn) [Compound I-555]
73 | ≤ 25 |  |  | Cc1cc(C#CC2CC2)ccc1-c1cn(CC23CC(C)(CO2)C3)nn1 [Compound I-556]
